Source: ChEMBL document CHEMBL1201862, “PubChem BioAssay data set” (2004)
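Protocol summary: plate cells (96-well), add compound at 5 concentrations, incubate 48 h, interpolate endpoints linearly. GI50 is the concentration that inhibits growth by half.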 Active and inactive are the calls of the source. Rule as the data show it: active = GI50 up to about 1.1 µM and inactive = higher.

How the values were obtained:
Test in all cases: NCI tumour cell line growth inhibition, 48 h
SNB-75 = system: SNB-75
HOP-62 = system: HOP-62
HL-60 = system: HL-60
SF-539 = system: SF-539
KM12 = system: KM12
RXF 393 = system: RXF 393
K562 = system: K562
UACC-257 = system: UACC-257
A549 = system: A549
SNB-78 = system: SNB-78
COLO 205 = system: COLO 205
A498 = system: A498
SK-MEL-5 = system: SK-MEL-5
SW-620 = system: SW-620
LOX IMVI = system: LOX IMVI
UO-31 = system: UO-31
SN12C = system: SN12C
SF-295 = system: SF-295
U-251 = system: U-251
Malme-3M = system: Malme-3M

Measured: GI50

O=C(Nc1ccc(F)cc1)C(=O)C(C(=O)c1ccccc1F)C1OC(=O)c2ccccc21 (stereo not drawn)
inactive: SNB-75 43.7 µM | HOP-62 > 100 µM | HL-60 29.8 µM | SF-539 31 µM | KM12 79.4 µM | RXF 393 > 100 µM | K562 34.7 µM | UACC-257 > 100 µM | A549 > 100 µM | SNB-78 44.6 µM | COLO 205 48.1 µM | A498 > 100 µM | SK-MEL-5 > 100 µM | SW-620 58.6 µM | LOX IMVI 35.6 µM | UO-31 52.6 µM | SN12C 51.2 µM | SF-295 68.5 µM | U-251 24 µM

O=S(O)c1cc(Cl)cc(Cl)c1O
inactive: SNB-75 75.9 µM | HOP-62 > 100 µM | HL-60 > 100 µM | SF-539 > 100 µM | KM12 > 100 µM | RXF 393 > 100 µM | K562 > 100 µM | UACC-257 > 100 µM | SNB-78 > 100 µM | A498 > 100 µM | LOX IMVI > 100 µM | UO-31 > 100 µM | Malme-3M > 100 µM | SN12C > 100 µM | U-251 > 100 µM

O=S(O)CCCCSSCCCCS(=O)(=O)S
inactive: SNB-75 10.9 µM | HOP-62 > 100 µM | SF-539 98.6 µM | KM12 67.6 µM | RXF 393 43.3 µM | K562 32.1 µM | UACC-257 21.1 µM | A549 40.7 µM | SNB-78 35.1 µM | COLO 205 48.5 µM | A498 > 100 µM | SK-MEL-5 14.2 µM | SW-620 37.7 µM | LOX IMVI 27.4 µM | UO-31 51.3 µM | Malme-3M 17.6 µM | SN12C 71 µM | SF-295 35.5 µM | U-251 > 100 µM

O=S(O)c1cc(Cl)cc(Cl)c1OCc1ccccc1
inactive: SNB-75 > 100 µM | HOP-62 > 100 µM | HL-60 > 100 µM | SF-539 > 100 µM | KM12 > 100 µM | RXF 393 > 100 µM | K562 > 100 µM | UACC-257 > 100 µM | SNB-78 > 100 µM | A498 > 100 µM | LOX IMVI > 100 µM | UO-31 > 100 µM | Malme-3M > 100 µM | SN12C > 100 µM | U-251 > 100 µM
